Experimental data published in patent publication US5534554A, “Sucrose ester-C20 to C28 alcohol formulations” (priority 1994, dated 1996).
Entries after “also recorded” stand apart in the source; their conditions may differ.

Columns and labels:
[1] = test system: Vero cells; assay: Cellular uptake and distribution of radiolabeled n-docosanol in Vero cells
[2] = test system: wild-type HSV-2; assay: Plaque inhibition, wild-type HSV-2 in Vero cells; assay type: cell-based; conditions: FIG. 7, Panel A
[3] = test system: Respiratory Syncytial Virus; assay: Antiviral activity against respiratory syncytial virus; assay type: cell-based; conditions: Table 6, human viruses
[4] = test system: Vero cells; assay: Metabolism of n-[14C]-docosanol in Vero cells (TLC); conditions: sodium azide and 2-deoxyglucose
[5] = test system: murine retroviruses; assay: Replication of murine retroviruses in vitro and in vivo
From the text: n-Docosanol has anti-retroviral activity both in vitro and in vivo. […] Notwithstanding the implications for treatment of AIDS, availability of a treatment regimen for diseases caused by retroviruses like feline leukemia virus, bovine leukemia virus, as well HTLV-1 and -2 would have substantial benefits in humanitarian terms.

[6] = test system: HSV; assay: Inhibition of HSV replication, Tetronic versus Pluronic suspensions; assay type: cell-based
[7] = test system: Vero or MDBK cells; assay: Uptake and metabolism in Vero versus MDBK cells; assay type: in vitro ADME, bovine (MDBK)
Experimental: FIG. 11 depicts data showing that n-[^14 C]-docosanol is metabolized more by Vero cells than by MDBK cells. Vero or MDBK cells were plated as described in the specification. n-[^14 C]-Docosanol was added to 6 mM (0.24 mM Tetronic 908) and the cultures were incubated 72 hours at 37° C./CO2. Cells were extracted and analyzed on TLC with hexane:diethyl ether:acetic acid (20:30:1; v:v:v) as the developing solvent. With this solvent system the polar phosphatides remain at the origin. The position of migration of n-docosanol is indicated. Duplicate plates were treated with an identical suspension lacking the radioactive label, and the numbers of cells in these duplicate plates were determined by counting cells excluding trypan blue with a hemocytometer.
When we compared total cellular uptake and relative metabolism, the results were strikingly clear. First, both the total amounts of n-docosanol uptake and the relative amounts of metabolic conversion were 3-4 times higher in Vero than in MDBK cells. […] Nonetheless, of the counts that are metabolized in two cells lines, the relative amounts in the major classes of phosphatides that are formed, phosphatidylcholine and phosphatidylethanolamine, are not different in the two cell lines.

[8] = test system: Cytomegalovirus; assay: Antiviral activity against murine cytomegalovirus; assay type: cell-based, murine virus; conditions: Table 6, murine viruses
[9] = test system: HSV; assay: Viral migration to the nucleus (HSV antigens by ELISA, ICP-4 by immunofluorescence); assay type: cell-based
From the text: The collective implications of the results of the studies are that the compound appears to interfere with one or more of the common pathways of viral entry into the cell and migration to the nucleus of infected target cells.
Thus, the amounts of both HSV core and envelope protein antigens detectable by ELISA, as well as the numbers of infected cells expressing the intranuclear HSV-specific immediate-early protein, ICP-4, by immunofluorescence, are reduced by more than 80%. Finally, the replication of infectious virions as measured in secondary plaque assay cultures is markedly diminished by 99% or more in n-docosanol-treated cells.

[10] = test system: HIV-1; assay: HIV-1 replication in PHA/IL-2-stimulated human peripheral blood mononuclear cells (p24 ELISA); assay type: cell-based
Experimental: Human peripheral blood mononuclear cells were cultured in medium containing 1 μg/ml PHA plus 5 units/ml IL-2 alone or also containing 100 μg/ml PFA, […] F-68 control vehicle contained in the high dose of n-docosanol/Pluronic. After overnight incubation, the cultures were inoculated with HIV-1 at a multiplicity of infection of 1 virion/cell. After 24 hours incubation at 37° C., the cultures were washed and inoculated with fresh medium containing PHA and IL-2, but lacking inhibitor. Replication of HIV-1 was determined 4 days later by quantitation of viral antigens by a p24-specific ELISA for HIV-1.
Our initial studies on HIV were conducted in collaboration with a U.S. National Institutes of Health laboratory and one of several experiments of this type is summarized in FIG. 13. Normal human peripheral blood mononuclear cells were activated with […] PHA plus 5 units/ml of IL-2 in medium alone or in the presence of the n-docosanol, Pluronic F-68 control vehicle, or phosphonoformic acid (PFA). The next day, the cultures were inoculated with HIV-1 and examined 4 days later for evidence of viral replication by detection of the p24 viral antigen. […] The dose response of HIV-1 to n-docosanol indicates an ED 50 of about 6-9 mM.

[11] = test system: HSV; assay: Inhibition of HSV-induced plaques in Vero versus MDBK cells; assay type: cell-based
[12] = test system: HSV-1; assay: Inhibition of HSV-1-induced cutaneous lesions (vesicles) in hairless guinea pigs; assay type: in vivo; conditions: continued treatment
From the text: Burroughs Wellcome Co., Research Triangle Park, N.C.; the current agent of choice for treatment of HSV infections which inhibits activity of viral DNA polymerase) in inhibiting HSV-1-induced cutaneous lesions in hairless guinea pigs. […] To confirm in an experimental animal model the efficacy of n-docosanol cream on HSV-induced lesions, and to compare its activity to that of […], hairless guinea pigs were inoculated with 1×10^6 PFU of HSV-1, and then treated with either n-docosanol-containing or control cream, or […] ointment. The n-docosanol creams were constructed as described. The control cream was constructed in a similar manner except stearic acid was substituted for n-docosanol. Treatment was started either 2 or 48 hours after virus inoculation. The sites were evaluated for vesicle formation, defined as a pus-filled blister, at the indicated time points.

SMILES: CCCCCCCCCCCCCCCCCCCCCCO [n-docosanol]
- radioactivity in the soluble cytoplasmic fraction ([1]; after 12 hours of exposure): the balance of radioactivity
- actual bioactive dose relative to the dose shown in FIGS. 7 and 9 ([1]; cultures, from uptake studies): 1/1000
- reduction of uptake of n-docosanol by energy poisons ([1]; sodium azide and 2-deoxyglucose, Vero cells): 90%
- inhibition of plaque formation [2]: inhibit plaque formation by wild type HSV-2 equally
- susceptibility to antiviral activity: Respiratory Syncytial Virus [3]: susceptible
- reduction of metabolic conversion into polar metabolites by energy poisons [4]: 80%
- inhibition of murine retrovirus replication [5]: does inhibit replication of murine retroviruses in vitro and in vivo
- ED50 in Pluronic relative to Tetronic ([6]; suspended in Pluronic F-68): approximately 3 times
- EC50 ([6]; suspended in Tetronic 908, read-out: ED50 for inhibition of HSV replication): 5 to 10 mM
- relative metabolic conversion, Vero relative to MDBK cells [7]: 3-4 times
- total uptake, Vero relative to MDBK cells [7]: 3-4 times
- amount of phosphatide metabolite, Vero relative to MDBK cells ([7]; after 72 hours, FIG. 11): ~4 fold
- relative amounts of phosphatidylcholine and phosphatidylethanolamine in the two cell lines ([7]; of counts metabolized): not different
- susceptibility to antiviral activity: Cytomegalovirus [8]: susceptible
- viral migration to the cell nucleus [9]: significantly inhibited; also recorded: substantially blocked
- reduction of HSV core protein antigen ([9]; ELISA): more than 80%
- reduction of HSV envelope protein antigen ([9]; ELISA): more than 80%
- reduction of number of infected cells expressing ICP-4 ([9]; immunofluorescence): more than 80%
- activity at the highest dose compared with PFA ([10]; FIG. 13): comparable to that observed with the very potent antiviral compound, phosphonoformic acid (PFA)
- EC50 ([10]; Human immunodeficiency virus 1, PBMC, dose response of HIV-1, read-out: ED 50 (the source's name)): 6 to 9 mM
- susceptibility to antiviral activity: HIV-1 ([10]; Table 6, human viruses): susceptible
- inhibition of HIV-1 replication ([10]; n-docosanol/Pluronic, FIG. 13): dose-related inhibitory activity
- antiviral HIV activity in Tetronic ([10]; suspended in Tetronic): even higher levels of antiviral HIV activity
- effectiveness in inhibiting HSV-induced plaques, Vero relative to MDBK cells [11]: 3-4 fold
- vesicle number at the 72 hour time point [12]: many fewer vesicles
